Measurements published in the supplement of paper PMC10307832.

Compound: OCc1c[nH]c2ccccc12 [Indole-3-carbinol]
Test: relative viability (nuclei count vs DMSO), 5 days (fraction); higher = more cells survive
Summary of the method: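 After an overnight hold at 37 °C, lung cancer cell lines in 1536-well plates were pinned with five library-drug doses (not always all listed), each √10 from the next, on vehicle-anchored plates. The cells stayed 5 days without fresh medium, then a one-step fix, permeabilisation and Hoechst stain preceded 4× imaging and MetaXpress nuclear counts. A plate passed only with control CV under 25% and at least one doubling. Viability is the median, over plates, of treated-well nuclei relative to vehicle-well nuclei.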

Cell Line | relative viability (0.253 µM) | relative viability (0.8 µM) | relative viability (2.53 µM) | relative viability (8 µM)
201T | 1.05 | 0.976 | 0.953 | 0.986
A549 | 0.951 | 1.03 | 1.02 | 0.91
A-427 | 0.96 | 0.95 | 0.982 | 0.97
ABC-1 | 0.816 | 0.995 | 1.12 | 0.955
BEN | 0.941 | 0.998 | 1.03 | 0.91
CAL-12T | 0.971 | 1.07 | 0.986 | 0.922
COR-L23 | 1.06 | 1.09 | 1.08 | 0.934
COR-L 105 | 0.964 | 0.845 | 0.958 | 0.844
ChaGo-K-1 | 0.965 | 0.99 | 0.893 | 1
EKVX | 1.04 | 0.96 | 0.999 | 0.943
EMC-BAC-2 | 0.957 | 0.949 | 1.05 | 0.912
EPLC-272H | 1.01 | 1.15 | 0.9 | 0.906
H3255 | 0.924 | 0.953 | 0.948 | 0.96
HARA | 0.96 | 0.894 | 1.06 | 0.889
HCC-15 | 1.14 | 0.999 | 0.995 | 0.973
HCC-44 | 0.983 | 0.972 | 0.954 | 0.96
HCC-78 | 1.05 | 0.83 | 0.991 | 1.06
HCC-366 | 1.09 | 0.905 | 0.999 | 1.03
HCC-827 | 1.07 | 1.03 | 1.06 | 0.987

Cell Line | relative viability (0.253 µM) | relative viability (0.8 µM) | relative viability (2.53 µM) | relative viability (8 µM)
HOP-62 | 1.02 | 0.933 | 1.03 | 0.939
IA-LM | 0.962 | 1.11 | 1.04 | 0.905
LC-2-ad | 1.04 | 0.951 | 0.971 | 1.01
LCLC-97TM1 | 1.08 | 1.1 | 1.02 | 0.92
LCLC-103H | 0.889 | 1.01 | 0.932 | 0.915
LK-2 | 0.929 | 0.872 | 1.02 | 1.05
LOU-NH91 | 0.957 | 0.933 | 0.95 | 1.04
LU99A | 0.946 | 0.915 | 1.01 | 0.905
LXF-289 | 1.09 | 1.1 | 1 | 0.946
NCI-H23 | 1.04 | 1.08 | 1.05 | 0.925
NCI-H322M | 0.84 | 0.973 | 0.859 | 0.866
NCI-H358 | 0.947 | 0.916 | 0.917 | 0.94
NCI-H441 | 1.1 | 1.28 | 1.15 | 1.11
NCI-H460 | 1.04 | 0.975 | 0.978 | 0.957
NCI-H520 | 0.925 | 0.848 | 1.05 | 0.902
NCI-H522 | 1.01 | 0.855 | 0.931 | 0.976
NCI-H596 | 1.07 | 0.948 | 0.967 | 1
NCI-H647 | 1.06 | 0.703 | 1.1 | 0.948
NCI-H650 | 1 | 1.03 | 1.05 | 0.893
